Laboratory results: PMC9716045 (Journal of Pesticide Science, 2022)

Legend:
DHODH of mice = conditions: read-out: IC50 value for DHODH; cited from earlier work
DHODH of humans = conditions: read-out: IC50 value for DHODH; cited from earlier work
DHODH of rats = conditions: read-out: IC50 value for DHODH; cited from earlier work
DHODH of A. fumigatus = conditions: read-out: IC50 value for DHODH; cited from earlier work
Sclerotinia sclerotiorum = conditions: cited from earlier work
P. oryzae 40901 = type: cell-based, Pyricularia oryzae
P. oryzae = type: cell-based, Pyricularia oryzae
Fusarium graminearum = conditions: cited from earlier work

C/C(O)=C(\C#N)C(=O)Nc1ccc(C(F)(F)F)cc1 [A77-1726, teriflunomide]
IC50 (DHODH of mice): 82 ± 21 nM
IC50 (DHODH of humans): 773 ± 78 nM
IC50 (DHODH of rats): 18 ± 3 nM

Cc1cc(-c2ccccc2)c(C(=O)C(=O)Nc2ccc(N3CCN(c4ncc(F)cn4)CC3)cc2)n1C [F901318, olorofim]
IC50 (DHODH of A. fumigatus): 44 ± 10 nM

CC1(C)N=C(c2cnc3ccccc3c2)c2ccccc2C1(F)F [quinofumelin, 3-(4,4-difluoro-3,3-dimethyl-3,4-dihydroisoquinolin-1-yl)quinoline]
antifungal activity on PDA medium (Sclerotinia sclerotiorum): strong antifungal activity
mycelial growth on minimal medium agar plates (P. oryzae 40901): could not be recognized
mycelial growth with exogenous orotate at high quinofumelin concentration (P. oryzae 40901): slow mycelial growth
recovery of mycelial growth by exogenous dihydroorotate (P. oryzae 40901): did not recover
recovery of mycelial growth by exogenous orotate (P. oryzae 40901): recovered
recovery of mycelial growth by exogenous uracil (P. oryzae 40901): restored
antifungal activity on PDA medium (P. oryzae): moderate antifungal activity
antifungal activity on PDA medium (Fusarium graminearum): strong antifungal activity
